{
  "source": "patent US20010055541A1",
  "about": "“Porous material disinfection method” (priority 2000, published 2001)",
  "key": {"Poliovirus type I": {"tested_on": "Poliovirus type I", "conditions": "Poliovirus type I in 9 minutes from activated sludge effluent; cited from earlier work"}, "Candida tropicalis": {"tested_on": "Candida tropicalis", "conditions": "Candida tropicalis in 0.30 minutes from ozone-demand free water; cited from earlier work"}, "[1]": {"tested_on": "Bacillus stearothermophilus (ATCC 7953)", "test": "Resistance of six organisms to sterilization with ozone gas (Example I)", "conditions": "six organisms compared, cell density 10^4-10^7, minimum of three runs"}, "Naegleria gruberi": {"tested_on": "Naegleria gruberi", "conditions": "Naegleria gruberi in 1.1 minutes from ozone-demand free phosphate buffer solution; cited from earlier work"}, "[2]": {"tested_on": "Bacillus subtilis v. globigii spores", "conditions": "within 1.5-2 minutes, water purged with 3% ozone by weight; cited from earlier work"}, "Escherichia coli": {"tested_on": "Escherichia coli", "conditions": "Escherichia coli in 19 minutes from raw waste water; cited from earlier work"}, "[3]": {"tested_on": "human immunodeficiency virus (HIV)", "conditions": "non-toxic concentration of 4 μg ozone per ml of serum; cited from earlier work"}},
  "data": [
    {"compound": "O=[O+][O-]", "note": "[ozone]", "values": [
      {"measurement": "ozone concentration reported for a 99% reduction", "setting": "Poliovirus type I", "value": 0.2, "unit": "mg/L"},
      {"measurement": "ozone concentration reported for a 99% reduction", "setting": "Candida tropicalis", "value": 0.02, "unit": "mg/L"},
      {"measurement": "resistance of organism to ozone exposure (ability to maintain viability)", "setting": "[1]", "value": "most resistant organism"},
      {"measurement": "ozone concentration reported for a 99% reduction", "setting": "Naegleria gruberi", "value": 1.2, "unit": "mg/L"},
      {"measurement": "log reduction of bacterial spores", "setting": "[2]", "value": "four-log reduction"},
      {"measurement": "ozone concentration reported for a 99% reduction", "setting": "Escherichia coli", "value": 2.2, "unit": "mg/L"},
      {"measurement": "log reduction in the infectious titer", "setting": "[3]", "value": "six-log reduction"}
    ]}
  ]
}
